In US11178871B2, “Herbicidal pyrimidine compounds” (BASF SE, priority 2016, dated 2021) one finds herbicidal activity data, which are given here for 18 compounds.

Common to all, as to format: in vivo
The subject of assay [1] is Echinocloa crus-galli. Kind of assay: greenhouse test, pre-emergence treatment, ECHCG. In short, it runs like this:
(§1)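 Scores run from 0, normal growth, to 100, no emergence or aerial parts destroyed, assessed after 2 to 4 weeks at 10-25 °C or 20-35 °C depending on species. Actives in water were spray-applied immediately post-sowing onto loamy sand with approximately 3.0% humus; hoods kept on until rooting.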

Assay [2] relates to Setaria faberi. Kind of assay: greenhouse test, pre-emergence treatment, SETFA. The source says: (§2) The culture containers used were plastic flowerpots containing loamy sand with approximately 3.0% of humus as the substrate. The seeds of the test plants were sown separately for each species.
(§3) For the pre-emergence treatment, the active ingredients, which had been suspended or emulsified in water, were applied directly after sowing by means of finely distributing nozzles. The containers were irrigated gently to promote germination and growth and subsequently covered with transparent plastic hoods until the plants had rooted. This cover caused uniform germination of the test plants, unless this had been impaired by the active ingredients.
(§4) Depending on the species, the plants were kept at 10-25° C. or 20-35° C., respectively.
(§5) The test period extended over 2 to 4 weeks. During this time, the plants were tended, and their response to the individual treatments was evaluated.
(§6) Evaluation was carried out using a scale from 0 to 100. 100 means no emergence of the plants, or complete destruction of at least the aerial moieties, and 0 means no damage, or normal course of growth. A good herbicidal activity is given at values of at least 70 and a very good herbicidal activity is given at values of at least 85.
(§7) The plants used in the greenhouse experiments were of the following species: […]

For assay [3], the system named is Alopecurus myosuroides. Kind of assay: greenhouse test, post-emergence treatment, ALOMY. The procedure, abridged: (§8)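 Seeds were sown per species in loamy sand with about 3.0% humus, grown (or transplanted as seedlings) to 3–15 cm, and treated with water-suspended or emulsified compound. Response was assessed over 2–4 weeks at species-dependent 10–25 °C or 20–35 °C, scored 0 (normal growth) to 100 (complete kill).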

The subject of assay [4] is Polygonum convolvulus. Description: greenhouse test, post-emergence treatment, POLCO.
From the text: as §2
(§9) For the post-emergence treatment, the test plants were first grown to a height of 3 to 15 cm, depending on the plant habit, and only then treated with the active ingredients which had been suspended or emulsified in water. For this purpose, the test plants were either sown directly and grown in the same containers, or they were first grown separately as seedlings and transplanted into the test containers a few days prior to treatment.
as §4, §5, §6, §7

Assay [5] has as its system Apera spica-venti. Description: greenhouse test, pre-emergence treatment, APESV. The procedure, abridged:
as §1

Assay [6] relates to Echinocloa crus-galli. Kind of assay: greenhouse test, post-emergence treatment, ECHCG. In short, it runs like this:
as §8

Assay [7] deals with Amaranthus retroflexus. Kind of assay: greenhouse test, pre-emergence treatment, AMARE.
From the text: as §2, §3, §4, §5, §6, §7

The subject of assay [8] is Abutilon theophrasti. Description: greenhouse test, post-emergence treatment, ABUTH. The settings on record: 1000 g/ha.
From the text: as §2, §9, §4, §5, §6, §7

For assay [9], the system named is Amaranthus retroflexus. Description: greenhouse test, post-emergence treatment, AMARE. In short, it runs like this: as §8
The subject of assay [10] is Avena fatua. Description: greenhouse test, post-emergence treatment, AVEFA. The settings on record: 2000 g/ha. The procedure, abridged:
as §8

The test system of assay [11] is Apera spica-venti. Kind of assay: greenhouse test, post-emergence treatment, APESV.
From the text: as §2, §9, §4, §5, §6, §7

Assay [12] concerns Setaria viridis. Description: greenhouse test, post-emergence treatment, SETVI. The note with it: 1000 g/ha. In short, it runs like this: as §8
[13] abbreviates: 500 g/ha, printed under post-emergence, method not restated.
[14] abbreviates: 1000 g/ha, printed under post-emergence, method not restated.

For the compound `Fc1ccc(-c2nc(C3CC3)ncc2-c2ccccc2Cl)cc1` [Ex. 11], the herbicidal activity result in [1] (2000 g/ha) is “good (A good herbicidal activity is given at values of at least 70)”; in assay [2] (2000 g/ha) it was “very good (a very good herbicidal activity is given at values of at least 85)”.
Turning to `OCc1nc(C2CC2)ncc1-c1ccccc1Br` [Ex. 13], the herbicidal activity entry in assay [3] (post-emergence, 250 g/ha) is listed as “very good (a very good herbicidal activity is given at values of at least 85)”; in [4] (250 g/ha) it was “very good (a very good herbicidal activity is given at values of at least 85)”; in [5] (250 g/ha), “very good (a very good herbicidal activity is given at values of at least 85)”; in assay [6] (post-emergence, 250 g/ha), “very good (a very good herbicidal activity is given at values of at least 85)”.
`O=[N+]([O-])c1ccccc1-c1cnc(C2CC2)nc1-c1ccco1` [Ex. 37]: in assay [2] (2000 g/ha), the herbicidal activity result is given as “good (A good herbicidal activity is given at values of at least 70)”.
On to `COC(=O)C(C)c1nc(C2CC2)ncc1-c1ccccc1Cl` (centres unmarked) [Ex. 87], for which the herbicidal activity result in assay [3] (post-emergence, 2000 g/ha) is given as “very good (a very good herbicidal activity is given at values of at least 85)”; in [7] (2000 g/ha), “good (A good herbicidal activity is given at values of at least 70)”.
With `Cc1ccc(-c2nc(C3CC3)ncc2-c2ccccc2I)o1` [Ex. 108], the herbicidal activity entry is reported as “good (A good herbicidal activity is given at values of at least 70)” in assay [3] (post-emergence, 500 g/ha) and “very good (a very good herbicidal activity is given at values of at least 85)” in assay [4] (500 g/ha).
For the compound `OC1(c2nc(C3CC3)ncc2-c2ccccc2Cl)C(F)(F)C(F)(F)C(F)(F)C(F)(F)C1(F)F` [Ex. 229], the results for the herbicidal activity result in [5] (1000 g/ha) and in [7] (1000 g/ha) were “very good (a very good herbicidal activity is given at values of at least 85)” and “good (A good herbicidal activity is given at values of at least 70)”, respectively.
On to `COC(C)Cc1nc(C2CC2)ncc1-c1ccccc1Cl` (centres unmarked) [Ex. 233], for which, in assay [7] (2000 g/ha), the herbicidal activity entry is “very good (a very good herbicidal activity is given at values of at least 85)”.
For `OC(c1cccs1)C(O)c1nc(C2CC2)ncc1-c1ccccc1Cl` (centres unmarked) [Ex. 246], in assay [7] (500 g/ha), the herbicidal activity entry is “very good (a very good herbicidal activity is given at values of at least 85)”.
The same measure, in the same setting: next, `COc1ncc(OC)c(-c2nc(C3CC3)ncc2-c2ccccc2Cl)n1` [Ex. 251]: “very good (a very good herbicidal activity is given at values of at least 85)”.
On to `Cc1cocc1-c1nc(C2CC2)ncc1-c1ccccc1Br` [Ex. 269], for which the herbicidal activity result in [2] (1000 g/ha) is given as “very good (a very good herbicidal activity is given at values of at least 85)”; in assay [6] (post-emergence, 1000 g/ha), “very good (a very good herbicidal activity is given at values of at least 85)”.
Take `CCc1ncoc1-c1nc(C2CC2)ncc1-c1ccccc1Cl` [Ex. 286]: the herbicidal activity result is reported as “very good (a very good herbicidal activity is given at values of at least 85)” in assay [1] (1000 g/ha); “very good (a very good herbicidal activity is given at values of at least 85)” in assay [8]; “very good (a very good herbicidal activity is given at values of at least 85)” in assay [9] (1000 g/ha); “very good (a very good herbicidal activity is given at values of at least 85)” in assay [5] (1000 g/ha); “very good (a very good herbicidal activity is given at values of at least 85)” in [6] (post-emergence, 1000 g/ha); “very good (a very good herbicidal activity is given at values of at least 85)” in [7] (1000 g/ha).
Turning to `Cc1noc(-c2nc(C3CC3)ncc2-c2ccccc2Cl)n1` [Ex. 295], the herbicidal activity entry in assay [3] (post-emergence, 2000 g/ha) is listed as “very good (a very good herbicidal activity is given at values of at least 85)”; in [1] (2000 g/ha), “very good (a very good herbicidal activity is given at values of at least 85)”; in assay [10], “very good (a very good herbicidal activity is given at values of at least 85)”; in assay [5] (2000 g/ha) it was “very good (a very good herbicidal activity is given at values of at least 85)”; in assay [7] (2000 g/ha), “very good (a very good herbicidal activity is given at values of at least 85)”.
In the case of `CCc1nc(CC)c(-c2nc(C3CC3)ncc2-c2ccccc2Cl)o1` [Ex. 310], the herbicidal activity result in assay [3] (setting [13]) is on record as “very good (a very good herbicidal activity is given at values of at least 85)”; in [3] (post-emergence, 500 g/ha), “very good (a very good herbicidal activity is given at values of at least 85)”; in assay [9] (500 g/ha), “very good (a very good herbicidal activity is given at values of at least 85)”; in assay [11] (500 g/ha), “very good (a very good herbicidal activity is given at values of at least 85)”; in [4] (500 g/ha), “very good (a very good herbicidal activity is given at values of at least 85)”; in [6] (setting [13]) it was “very good (a very good herbicidal activity is given at values of at least 85)”.
As to `CCc1nc(CC)c(-c2nc(C3CC3)ncc2-c2ccccc2Br)o1` [Ex. 311], the herbicidal activity result in assay [3] (setting [13]) is listed as “very good (a very good herbicidal activity is given at values of at least 85)”; in assay [3] (post-emergence, 500 g/ha), “very good (a very good herbicidal activity is given at values of at least 85)”; in assay [9] (500 g/ha), “very good (a very good herbicidal activity is given at values of at least 85)”; in assay [11] (500 g/ha), “very good (a very good herbicidal activity is given at values of at least 85)”; in [4] (500 g/ha), “very good (a very good herbicidal activity is given at values of at least 85)”; in assay [6] (setting [13]), “very good (a very good herbicidal activity is given at values of at least 85)”.
For the compound `Cc1nc(O)oc1-c1nc(C2CC2)ncc1-c1ccccc1Br` [Ex. 312], the herbicidal activity result in [3] (setting [13]) is reported as “very good (a very good herbicidal activity is given at values of at least 85)”; in assay [3] (post-emergence, 500 g/ha) it was “very good (a very good herbicidal activity is given at values of at least 85)”; in assay [11] (500 g/ha) it was “very good (a very good herbicidal activity is given at values of at least 85)”; in assay [4] (500 g/ha) it was “very good (a very good herbicidal activity is given at values of at least 85)”; in assay [6] (setting [13]), “very good (a very good herbicidal activity is given at values of at least 85)”; in assay [6] (post-emergence, 500 g/ha), “very good (a very good herbicidal activity is given at values of at least 85)”.
For the compound `CCCc1nc(C)c(-c2nc(C3CC3)ncc2-c2ccccc2Cl)o1` [Ex. 313], the herbicidal activity result in assay [3] (post-emergence, 1000 g/ha) was “very good (a very good herbicidal activity is given at values of at least 85)”; in [11] (1000 g/ha), “very good (a very good herbicidal activity is given at values of at least 85)”; in [12], “very good (a very good herbicidal activity is given at values of at least 85)”; in assay [6] (setting [14]) it was “very good (a very good herbicidal activity is given at values of at least 85)”; in assay [6] (post-emergence, 1000 g/ha), “very good (a very good herbicidal activity is given at values of at least 85)”.
Turning to `Cc1cnc(-c2nc(C3CC3)ncc2-c2ccccc2Cl)o1` [Ex. 314], the herbicidal activity entry in assay [9] (1000 g/ha) was “very good (a very good herbicidal activity is given at values of at least 85)”; in assay [11] (1000 g/ha), “very good (a very good herbicidal activity is given at values of at least 85)”; in [12], “very good (a very good herbicidal activity is given at values of at least 85)”; in assay [6] (setting [14]) it was “very good (a very good herbicidal activity is given at values of at least 85)”; in assay [6] (post-emergence, 1000 g/ha), “very good (a very good herbicidal activity is given at values of at least 85)”.
Regarding `Clc1ccccc1-c1cnc(C2CC2)nc1-c1ncco1` [Ex. 315], the herbicidal activity result is recorded as “very good (a very good herbicidal activity is given at values of at least 85)” in assay [3] (post-emergence, 2000 g/ha); “very good (a very good herbicidal activity is given at values of at least 85)” in assay [9] (2000 g/ha); “very good (a very good herbicidal activity is given at values of at least 85)” in assay [11] (2000 g/ha); “very good (a very good herbicidal activity is given at values of at least 85)” in assay [6] (2000 g/ha, printed under post-emergence, method not restated); “very good (a very good herbicidal activity is given at values of at least 85)” in [6] (post-emergence, 2000 g/ha).
